Assay results reported in patent publication US9334530B2, “Methods for making and imaging arrays that comprise a plurality of different biomolecules” (AmberGen, Inc., priority 2007, dated 2016).

Target: T1, PKCα (Homo sapiens, UniProt P17252)
T1 construct: isolate and photo-release endogenous PKCa from the undiluted detergent fractionated HeLa cell extracts; endogenous in cells; host or cells: HeLa cells (ATCC)
Experiment: PMA mediated PKCα sub-cellular translocation, measured by kinase activity after photocleavable antibody isolation
Assay type: cell-based
Conditions: cultured HeLa cells stimulated with 200 nM PMA for 5 min, detergent fractionated; based on kinase activity of isolated PKCα; n=4
Experimental: FIG. 20. Phorbol ester (PMA) mediated protein kinase Cα (PKCα) sub-cellular translocation as measured by functional activity following isolation with photocleavable antibodies. Cultured HeLa cells were stimulated with 200 nM PMA for 5 min and detergent fractionated into the cytosol and membrane compartments prior to isolation and purification with the photocleavable antibodies.
Cultured HeLa cells (ATCC; Manassas, Va.) were stimulated for 5 min with 200 nM Phorbol-12-Myristate-13-Acetate (PMA; EMD Biosciences, Inc., San Diego, Calif.) and subsequently detergent fractionated into sub-cellular compartments according to reported procedures [Ramsby et al. (1994) Electrophoresis 15, 265-277; Ramsby & Makowski. (1999) Methods Mol Biol 112, 53-66; Chiang et al. (2000) J Biochem Biophys Methods 46, 53-68]. PMA is a potent activator of PKCα and is well known to cause translocation of the kinase from the cytosolic to the membrane sub-cellular compartments [Ross & Joyner. (1997) Endothelium 5, 321-332; Bazan & Rapoport. (1996) JPharmacol Toxicol Methods 36, 87-95; Yazlovitskaya & Melnykovych. (1995) Cancer Lett 88, 179-183]. […]

SMILES: CCCCCCCCCCCCCC(=O)O[C@@H]1[C@@H](C)[C@@]2(O)[C@@H](C=C(CO)C[C@]3(O)C(=O)C(C)=C[C@@H]23)[C@@H]2C(C)(C)[C@]12OC(C)=O [PMA, Phorbol-12-Myristate-13-Acetate]
- relative sub-cellular distribution of PKCα: cytosol: 16±4%
- relative sub-cellular distribution of PKCα: membrane: 84±3%
